In this test the test system is CEM cells HIV-1 protection, formazan growth assay. Briefly: NCI AIDS Antiviral Assay. As to conditions: for IC50: measured here: growth of uninfected CEM cells. The gist of the method:
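Protection of CEM cells against HIV-1 was scored from cell growth (soluble formazan) across five concentrations, with parallel uninfected cells. Lack of protection may reflect toxicity.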

Among the data in PubChem BioAssay AID179 (DTP/NCI, 2004) are EC50, IC50 and outcome values, retold here.

Activity calls are given as the source filed them.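 How the source made its calls: active means compounds giving half or more protection of infected cells from virus-caused growth loss, again on retest; inactive means the rest.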 Where only a bound is given, the exact number is not on record here.

With `C#CCCOC1(OC)N=NC(C)(C)O1` (stereo unspecified), the EC50 is over 200 µM and the IC50 is over 200 µM. Consider `CCCCCCCSc1nc2c(C(=O)OCC)ncn2c2ccccc12`, for which the EC50 was over 19.5 µM and the IC50 was over 19.5 µM. On to `CN1CCC2(CC1)C(=O)N(Cc1ccccc1)C(=O)C2c1ccccc1` (stereo unspecified), for which the EC50 was over 372 µM and the IC50 came out at 214 µM. As to `Cc1ccc(S(=O)(=O)NC(CCC(=O)NNc2ccccc2)C(=O)NNc2ccccc2)cc1` (stereo unspecified), the EC50 was over 200 µM. On to `S=c1sc2c(n1-c1ccccc1)NC=NC2S` (stereo unspecified), for which the EC50 was over 468 µM and the IC50 was determined as 22.9 µM. The corresponding values for `CCCCNC(=O)Nc1c(C(N)=O)c2n(c1C(=O)OCC)CCCCC2` are over 50.1 µM and over 50.1 µM.

Consider `CN(C)CCN=C1Nc2ccccc2C(=S)N2CSCC12` (stereo unspecified), for which the EC50 was over 200 µM and the IC50 is over 200 µM. Regarding `CC1=C(C)C1[N+](=O)[O-]`, the EC50 is over 200 µM and the IC50 was over 200 µM. Turning to `O=C1c2ccccc2C(=O)c2sc(Nc3ccc(Cl)cc3)nc21`, the EC50 was over 11 µM and the IC50 worked out at 4.68 µM. Taken in the same sequence, the figures for `C[S+](C)CCS(=O)(=O)[O-]` were over 200 µM and over 200 µM. The corresponding values for `CC(C)CCC[C@@H](C)C1CCC2[C@@H]3CCC4CC(CCC=C(c5cc(Cl)c(OC(=O)c6ccccc6)c(C(=O)O)c5)c5cc(Cl)c(OC(=O)c6ccccc6)c(C(=O)O)c5)CC[C@]4(C)C3CC[C@@]21C` (stereo partly specified) are over 200 µM and 141 µM. The corresponding values for `N/C(=N\N=C\c1cccs1)NO` are over 708 µM and over 708 µM. On to `CC(=O)OCCC(O[Si](c1ccccc1)(c1ccccc1)C(C)(C)C)C(C)(C)O` (stereo unspecified), for which the outcome was inactive. On to `CN(C)c1ncnc2c1ncn2C1C=CC(COS(N)(=O)=O)C1` (stereo unspecified), for which the EC50 was over 200 µM and the IC50 is over 200 µM. Take `O=C1C(Br)=C(C2=CC(=P(c3ccccc3)(c3ccccc3)c3ccccc3)C=C2)C(=O)C(Br)=C1C1=CC(=P(c2ccccc2)(c2ccccc2)c2ccccc2)C=C1`: the EC50 is over 50.1 µM and the IC50 is over 50.1 µM.

Regarding `COc1ccc2c(c1)C(=O)C13CC(C(=O)O)C(OC(C)=O)(CCC21)C3` (stereo unspecified), the EC50 is over 89.1 µM and the IC50 was over 89.1 µM. For the compound `Cc1nc2cc(C(F)(F)F)ccc2[nH]c1=O`, the EC50 was over 200 µM and the IC50 is over 200 µM. On to `Cc1ccccc1NC(=O)c1[nH]c(=S)nc(N)c1-c1ccccc1C`, for which the EC50 was over 97.7 µM and the IC50 was over 97.7 µM. With `Cc1c2c(n(CCc3ccc(Cl)cc3)c1C)NC(c1ccccc1)C(C#N)S2(=O)=O` (stereo unspecified), the EC50 is over 200 µM and the IC50 came to 8.91 µM.

For the compound `OCc1ccc2[n+](c1)CCC1c3ccccc3NC21` (stereo unspecified), the EC50 was over 77.6 µM and the IC50 is over 77.6 µM. Turning to `CS(=O)(=O)c1cc(=O)[nH]c(=O)[nH]1`, the EC50 was 77.6 µM and the IC50 turned out to be 102 µM.

With `O=C1C(c2c[nH]c3ccccc23)=Nc2ccc(Br)cc21`, the EC50 is over 20 µM and the IC50 was 5.89 µM. The corresponding values for `O=C(c1ccccc1)N1C(=S)N(c2ccc([N+](=O)[O-])cc2)C(=Nc2ccccc2)C1=Nc1ccccc1` are over 200 µM and 1 µM.

For the compound `COc1ccc(C(C#N)NC23CC4CC(CC(C4)C2)C3)cc1` (stereo unspecified), the outcome was inactive.

For `[N-]=[N+]=Nc1ccc(CCN2CCN(c3cccc(C(F)(F)F)c3)CC2)cc1I`, the result was inactive. For the compound `Cc1cn([C@H]2C[C@@H]3[C@@H](COC(CCC[Se]c4ccccc4)N3O)O2)c(=O)[nH]c1=O` (stereo partly specified), the EC50 is 13.2 µM and the IC50 came to 117 µM. As to `O=S(=O)(c1ccc(NCSc2nc3ccccc3s2)cc1)c1ccc(NCSc2nc3ccccc3s2)cc1`, the EC50 is over 12 µM and the IC50 was over 12 µM. For the compound `C=CCn1c(C23CC4CC(CC(C4)C2)C3)n[nH]c1=S`, the EC50 is over 1000 µM and the IC50 amounted to 30.9 µM. The corresponding values for `O=C(O)c1cccc2c(=O)c3ccccc3oc12` are over 977 µM and 209 µM. The corresponding values for `COC(=O)Cc1c(-c2c(CC(=O)OC)c3ccccc3n2C2OC(COC(C)=O)C(OC(C)=O)C(OC(C)=O)C2OC(C)=O)[nH]c2ccccc12` (stereo unspecified) are over 200 µM and 26.3 µM. Take `C[N+]1(C)C/C(=C/c2ccc(F)cc2)C(=O)/C(=C\c2ccc(F)cc2)C1`: the EC50 is over 537 µM and the IC50 is 97.7 µM.

For the compound `c1cc(-c2ccsc2-c2ccsc2)cs1`, the EC50 is over 200 µM and the IC50 was 52.5 µM. `c1cnc(SCc2nc3ccccc3o2)nc1`: the EC50 is 38 µM and the IC50 is over 200 µM. The corresponding values for `CSC1=Nc2ccccc2SC(c2ccccc2)C1c1ccccc1` (stereo unspecified) are over 49 µM and 35.5 µM. `C=C1C(=O)O[C@@H]2C1C(OC(C)CCC)[C@@H](O)[C@@H](C)C(O)C1O[C@]1(C)[C@H]2O` (stereo partly specified): the result was inactive. As to `Nc1ncnc2c1ncn2[C@H]1[C@H](CO)[C@@H](CO)C1(F)F`, the EC50 is over 200 µM and the IC50 amounted to 155 µM. The corresponding values for `Cc1ncc2c(n1)NC(=O)NC2` are over 83.2 µM and over 83.2 µM. For `Cc1nc2c(cc1C(=O)NN)c(=O)n(C)c(=O)n2C`, the EC50 is over 200 µM and the IC50 is over 200 µM. With `CN(C)C=Nc1cccc2cnccc12`, the EC50 was over 200 µM and the IC50 is 166 µM.

With `COc1cc(-c2cc(O)c(-c3ccc4ccccc4n3)c(=O)[nH]2)cc(OC)c1OC`, the EC50 was over 0.933 µM and the concentration for half-maximal inhibition (IC50) is over 0.933 µM. Regarding `N#CC12C(=O)NC(=O)C1(C#N)C2c1ccccc1` (stereo unspecified), the EC50 was over 501 µM and the IC50 is over 501 µM. As for `CC(C)=CCC/C(C)=C/CC/C(C)=C/Cc1c(O)c2ccccc2oc1=O`, the EC50 is over 186 µM and the IC50 was 95.5 µM. The corresponding values for `Nc1ncnc2c1ncn2[C@H]1CC(CO)CO1` (stereo partly specified) are over 661 µM and over 661 µM. Take `O=C(O)C(SC1=NNC2(C(=O)N1)c1ccccc1-c1ccccc12)SC1=NNC2(C(=O)N1)c1ccccc1-c1ccccc12`: the outcome was inactive.

As to `O=C(/C=C/c1c(O)ccc2ccccc12)c1ccc([N+](=O)[O-])cc1`, the EC50 is 33.9 µM and the IC50 was determined as 58.9 µM.

Turning to `CCOC(=O)C(=CNC(=S)Nc1cc(C)ccc1C)C(=O)OCC`, the EC50 is over 200 µM and the IC50 was over 200 µM. For the compound `Oc1ccc(/C=C/c2cc(O)cc3c2[C@@H](c2cc(O)cc(O)c2)C(c2ccc(O)cc2)O3)cc1` (stereo partly specified), the EC50 was over 31.6 µM and the IC50 worked out at 16.6 µM. As for `Cc1[nH]c(=O)c2oc3cc4ccccc4cc3c2c1C(=O)O`, the EC50 was over 200 µM and the IC50 is over 200 µM.

As to `CCNC(=O)Cc1nc2c(N)ncnc2n1C1OC(CO)C(O)C1O` (stereo unspecified), the EC50 is over 200 µM and the 50% inhibitory concentration (IC50) worked out at 81.3 µM. Taken in the same sequence, the figures for `CC(C)(O)[C@@H]1CC[C@](C)(C2[C@@H](O)C[C@@]3(C)C4C[C@H](OC5OCC(O)C(O)C5O)[C@H]5C(C)(C)[C@@H](OC6OCC(O)C(O)C6OC6OCC(O)C(O)C6O)CC[C@@]56C[C@@]46CC[C@]23C)O1` (stereo partly specified) were over 200 µM and over 200 µM. Taken in the same sequence, the figures for `O=C(O)CN(CC(=O)O)Cc1ccn(-c2cccc(-n3ccc(CN(CC(=O)O)CC(=O)O)n3)n2)n1` were over 200 µM and over 200 µM.
